Test results: patent publication US7456203B2, “Muscarinic receptor antagonists” (Theravance, Inc., priority 1999, dated 2008)

Key:
[1] = molecular target: T1, M2 receptor in bladder (Rattus norvegicus, UniProt P10980); experiment: Rat bladder in vitro binding assay, receptor block by selective ligand; conditions: blocking ligand 2 μM; bladder membranes
T1 construct: Membranes from rat bladder were prepared; from tissue; host or cells: rat bladder membranes
T1 sequence (P10980 1-466): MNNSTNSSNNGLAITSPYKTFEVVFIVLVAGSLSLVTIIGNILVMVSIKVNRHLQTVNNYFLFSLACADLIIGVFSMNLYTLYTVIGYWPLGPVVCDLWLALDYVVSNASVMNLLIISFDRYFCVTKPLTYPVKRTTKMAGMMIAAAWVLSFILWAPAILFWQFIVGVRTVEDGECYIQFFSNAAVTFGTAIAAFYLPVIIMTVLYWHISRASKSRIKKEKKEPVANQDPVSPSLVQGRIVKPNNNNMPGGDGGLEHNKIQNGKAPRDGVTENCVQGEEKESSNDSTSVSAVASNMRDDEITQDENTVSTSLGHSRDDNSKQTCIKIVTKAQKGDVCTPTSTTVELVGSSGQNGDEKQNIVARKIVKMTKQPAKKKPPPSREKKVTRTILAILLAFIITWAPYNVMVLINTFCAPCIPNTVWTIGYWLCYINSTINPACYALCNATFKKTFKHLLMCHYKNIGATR
Procedure: (§1) Bladder was comprised of both M2 and M3 muscannic receptors. The ratio was typically 4:1 M2:M3. […] The following example illustrates the procedure for M3 bladder binding.
(§2) Membranes from rat bladder were prepared in a similar fashion to that used to isolate heart membrane above. […] To 50 μl of compound dilution in a 96-well assay plate was added an appropriate amount of rat heart membrane (usually 25 μl of membrane prep in 75 μl of 20 mM HEPES, 100 mM NaCl/10 mM MgCl2 at pH 7.5). The amount of membrane added depended in general on the results of signal optimization, and ranged from 12.5-25. Last, 50 μl of 2.12 nM 3H-N-methylscopolamine radioligand in compound dilution buffer was added. The total volume in each well was 200 μl. The final concentration of methoctramine was 2 μM. The filter plate was pre-blocked using 0.3% PEI for at least 15 mins., and then washed twice with 200 μl PBS. The assay plate was incubated for 1 hour at room temperature with gentle shaking. The contents of the assay plate was then transferred to the filter plate, and washed three times using 200 μl PBS. About 40 μl of scint was added to each well, the plate was allowed to sit at room temperature for 18 h, and then counted using a Packard Topcount NXT.

[2] = molecular target: T2, M3 receptor in bladder (Rattus norvegicus, UniProt P08483); experiment: as above; conditions: bladder membranes
T2 construct: Membranes from rat bladder were prepared; from tissue; host or cells: rat bladder membranes
T2 sequence (P08483 whole entry): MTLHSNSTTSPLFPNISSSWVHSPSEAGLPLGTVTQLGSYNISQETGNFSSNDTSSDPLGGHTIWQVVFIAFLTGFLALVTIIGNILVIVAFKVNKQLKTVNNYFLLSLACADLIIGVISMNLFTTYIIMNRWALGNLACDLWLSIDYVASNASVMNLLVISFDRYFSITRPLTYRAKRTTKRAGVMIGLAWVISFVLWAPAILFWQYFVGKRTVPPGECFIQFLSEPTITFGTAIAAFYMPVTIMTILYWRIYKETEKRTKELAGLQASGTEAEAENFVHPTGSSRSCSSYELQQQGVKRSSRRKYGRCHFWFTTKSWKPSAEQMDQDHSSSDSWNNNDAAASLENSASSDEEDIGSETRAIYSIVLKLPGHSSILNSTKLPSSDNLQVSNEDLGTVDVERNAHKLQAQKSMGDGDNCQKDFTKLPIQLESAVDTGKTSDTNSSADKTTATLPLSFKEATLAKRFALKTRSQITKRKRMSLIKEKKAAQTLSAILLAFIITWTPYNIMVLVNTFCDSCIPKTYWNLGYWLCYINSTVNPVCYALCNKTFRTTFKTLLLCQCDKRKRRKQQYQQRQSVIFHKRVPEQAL
Procedure: as §1
as §2, with “The final concentration of methoctramine was 2 μM.” left out

[3] = test system: oxotremorine response (intraluminal pressure of the bladder); experiment: In vivo bladder assay; parameters: species or system rat; conditions: 0.005-0.01 mg/kg, IV; after oxotremorine 0.3 mg/kg SC; anesthetized male Sprague-Dawley rats
Procedure: Male Sprague-Dawley rats weighing 250-300 g were anesthetized with urethane (1.3 g/kg, i.p.), inactin (25 mg/kg, i.p.), and xylazine (4 mg, i.p.). The jugular (or femoral) vein was isolated and ligated and a small incision was made in the vein distal to the ligation. […]
For data analysis, the oxotremorine response (zero inhibition) was determined by measuring the mean pressure 1 minute prior to the antagonist injection. Then, to assess antagonist inhibition, mean pressure was measured beginning at 1 minute and ending 2 minutes after antagonist administration. […] The percent inhibition by the antagonist can be determined by the ratio of the decrease from the zero to 100% values. • The formula is: oxotremorine mean−treatment mean*100 oxotremorine mean−atropine mean.

Row | Compound | block of the M2 receptor in bladder [1] | block of M3 receptor ([2]; 2 μM Darifenacin) | decrease in intraluminal pressure [3] | block of the M3 receptor in bladder ([2]; final concentration of methoctramine 2 μM)
1 | NC(=O)C(c1ccccc1)(c1ccccc1)[C@@H]1CCN(CCc2ccc3c(c2)CCO3)C1 [Darifenacin] | > 99% | minimal |  | 
2 | CN1[C@@H]2CC[C@H]1C[C@@H](OC(=O)C(CO)c1ccccc1)C2 (some centres unmarked) [atropine] |  |  | 30-70% | 
3 | COc1ccccc1CNCCCCCCNCCCCCCCCNCCCCCCNCc1ccccc1OC [methoctramine, Methoctramine] | > 99% |  |  | less than 40%
